Converted amounts (≈) assume the structure as drawn.
Legend:
[1] = Selectivity ratio of IC50 for ADAMTS12 (unknown origin) to IC50 for ADAMTS7 (unknown origin)
[2] = Half life in Beagle dog at 1 mg/kg, po measured for >24 hrs by HPLC-MS/MS analysis; type: ADME, organism-based, Canis lupus familiaris; conditions: in vivo
[3] = Fraction unbound in human plasma; type: ADME, cell-free
[4] = Selectivity ratio of IC50 for MMP2 (unknown origin) to IC50 for ADAMTS7 (unknown origin)
[5] = Oral bioavailability in Beagle dog at 1 mg/kg measured for >24 hrs by HPLC-MS/MS analysis; type: ADME, organism-based, Canis lupus familiaris; conditions: in vivo
[6] = Selectivity ratio of IC50 for ADAMTS5 (unknown origin) to IC50 for ADAMTS7 (unknown origin)
[7] = Solubility of compound in water at pH 7 measured after 24 hrs by HPLC analysis; type: physicochemical; conditions: buffer, pH 7, 24 h
[8] = Clearance in Beagle dog at 0.3 mg/kg, iv measured for >24 hrs by HPLC-MS/MS analysis; type: ADME, organism-based, Canis lupus familiaris; conditions: in vivo
[9] = Stability in human plasma measured for 4 hrs by HPLC analysis; type: ADME, cell-free
[10] = Dose normalized AUC in C57bl6 mouse at 0.3 mg/kg, iv measured for >24 hrs by HPLC-MS/MS analysis; type: ADME, organism-based; conditions: in vivo
[11] = Half life in Beagle dog at 0.3 mg/kg, iv measured for >24 hrs by HPLC-MS/MS analysis; type: ADME, organism-based, Canis lupus familiaris; conditions: in vivo
Cytochrome P450 2C8 = target: T1, Cytochrome P450 2C8 (Homo sapiens, UniProt P10632); test: Inhibition of CYP2C8 in human liver microsomes using amodiaquin as substrate upto 20 uM by LC-MS/MS analysis; type: ADME, Microsome
T1 sequence (P10632 whole entry): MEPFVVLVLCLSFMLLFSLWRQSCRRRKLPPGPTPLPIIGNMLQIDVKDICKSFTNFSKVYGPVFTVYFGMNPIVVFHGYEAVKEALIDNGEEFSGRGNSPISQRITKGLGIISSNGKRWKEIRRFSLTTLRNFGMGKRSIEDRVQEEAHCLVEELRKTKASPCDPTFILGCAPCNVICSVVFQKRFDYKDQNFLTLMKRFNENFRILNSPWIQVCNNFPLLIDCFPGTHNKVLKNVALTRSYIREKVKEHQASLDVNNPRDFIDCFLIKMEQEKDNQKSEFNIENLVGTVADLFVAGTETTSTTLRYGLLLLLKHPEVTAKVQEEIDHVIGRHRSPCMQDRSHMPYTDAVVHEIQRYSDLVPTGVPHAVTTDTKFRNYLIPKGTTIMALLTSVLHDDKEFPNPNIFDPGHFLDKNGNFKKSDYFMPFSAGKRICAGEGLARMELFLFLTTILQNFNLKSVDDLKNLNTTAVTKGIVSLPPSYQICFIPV

[12] = Selectivity ratio of IC50 for C-terminal 6His-tagged recombinant human ADAM8 (1 to 497 residues) using Dabcyl-SSNQLQRR-Glu(EDANS)-NH2 as substrate to IC50 for ADAMTS7 (unknown origin)
[13] = target: A disintegrin and metalloproteinase with thrombospondin motifs 7 (Mus musculus, UniProt Q68SA9); test: Inhibition of recombinant mouse ADAMTS7 using HiLyteFluor-488 DELSSMVLELRGLRT-K(QXL520)-E-NH2 as substrate incubated for 120 mins by FRET assay
[14] = Selectivity ratio of IC50 for C-terminal 10His-tagged recombinant human ADAM10 (214 to 672 residues) expressed in baculovirus infected Sf21 cells using Dabcyl-SSNQLQRR-Glu(EDANS)-NH2 as substrate to IC50 for ADAMTS7 (unknown origin)
[15] = target: Voltage-gated inwardly rectifying potassium channel KCNH2 (Homo sapiens, UniProt Q12809); test: Inhibition of hERG upto 10 uM by whole-cell voltage clamp method; type: toxicity
Sequence of Voltage-gated inwardly rectifying potassium channel KCNH2 (Q12809 whole entry): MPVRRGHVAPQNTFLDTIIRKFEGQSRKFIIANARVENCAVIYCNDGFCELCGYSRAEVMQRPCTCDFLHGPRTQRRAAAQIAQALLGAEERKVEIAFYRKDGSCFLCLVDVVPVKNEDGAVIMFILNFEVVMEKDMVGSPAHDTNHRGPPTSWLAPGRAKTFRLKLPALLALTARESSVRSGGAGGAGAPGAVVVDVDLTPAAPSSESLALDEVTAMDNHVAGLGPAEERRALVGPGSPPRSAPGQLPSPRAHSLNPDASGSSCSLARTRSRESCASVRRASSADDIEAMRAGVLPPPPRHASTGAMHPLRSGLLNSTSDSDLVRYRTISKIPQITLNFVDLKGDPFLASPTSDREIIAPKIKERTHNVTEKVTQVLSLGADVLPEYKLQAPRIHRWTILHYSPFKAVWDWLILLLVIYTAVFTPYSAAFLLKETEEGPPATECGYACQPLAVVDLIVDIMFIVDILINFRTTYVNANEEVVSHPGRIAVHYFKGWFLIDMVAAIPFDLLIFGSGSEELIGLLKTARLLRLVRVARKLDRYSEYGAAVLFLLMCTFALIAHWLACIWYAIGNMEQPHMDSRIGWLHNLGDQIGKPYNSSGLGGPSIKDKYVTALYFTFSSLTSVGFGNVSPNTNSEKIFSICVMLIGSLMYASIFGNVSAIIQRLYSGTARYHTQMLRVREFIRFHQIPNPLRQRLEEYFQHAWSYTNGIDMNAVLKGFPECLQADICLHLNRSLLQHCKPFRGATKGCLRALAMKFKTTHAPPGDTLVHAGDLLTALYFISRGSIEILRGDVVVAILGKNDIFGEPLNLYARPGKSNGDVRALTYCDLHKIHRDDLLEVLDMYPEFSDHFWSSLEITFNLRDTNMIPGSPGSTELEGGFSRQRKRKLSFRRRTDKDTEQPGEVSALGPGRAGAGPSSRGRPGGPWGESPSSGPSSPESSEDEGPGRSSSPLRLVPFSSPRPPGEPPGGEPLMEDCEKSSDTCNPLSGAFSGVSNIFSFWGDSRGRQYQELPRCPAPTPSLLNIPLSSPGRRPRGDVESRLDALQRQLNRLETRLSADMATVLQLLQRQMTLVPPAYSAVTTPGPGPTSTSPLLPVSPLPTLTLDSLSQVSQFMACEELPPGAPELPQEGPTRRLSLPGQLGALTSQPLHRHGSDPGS

[16] = Fraction unbound in dog plasma; type: ADME, cell-free, Canis lupus familiaris
[17] = target: Sodium channel protein type 5 subunit alpha (Homo sapiens, UniProt Q14524); test: Inhibition of hNaV1.5 upto 10 uM by voltage clamp method; type: toxicity
Sequence of Sodium channel protein type 5 subunit alpha (Q14524 whole entry, the tested form may be a part): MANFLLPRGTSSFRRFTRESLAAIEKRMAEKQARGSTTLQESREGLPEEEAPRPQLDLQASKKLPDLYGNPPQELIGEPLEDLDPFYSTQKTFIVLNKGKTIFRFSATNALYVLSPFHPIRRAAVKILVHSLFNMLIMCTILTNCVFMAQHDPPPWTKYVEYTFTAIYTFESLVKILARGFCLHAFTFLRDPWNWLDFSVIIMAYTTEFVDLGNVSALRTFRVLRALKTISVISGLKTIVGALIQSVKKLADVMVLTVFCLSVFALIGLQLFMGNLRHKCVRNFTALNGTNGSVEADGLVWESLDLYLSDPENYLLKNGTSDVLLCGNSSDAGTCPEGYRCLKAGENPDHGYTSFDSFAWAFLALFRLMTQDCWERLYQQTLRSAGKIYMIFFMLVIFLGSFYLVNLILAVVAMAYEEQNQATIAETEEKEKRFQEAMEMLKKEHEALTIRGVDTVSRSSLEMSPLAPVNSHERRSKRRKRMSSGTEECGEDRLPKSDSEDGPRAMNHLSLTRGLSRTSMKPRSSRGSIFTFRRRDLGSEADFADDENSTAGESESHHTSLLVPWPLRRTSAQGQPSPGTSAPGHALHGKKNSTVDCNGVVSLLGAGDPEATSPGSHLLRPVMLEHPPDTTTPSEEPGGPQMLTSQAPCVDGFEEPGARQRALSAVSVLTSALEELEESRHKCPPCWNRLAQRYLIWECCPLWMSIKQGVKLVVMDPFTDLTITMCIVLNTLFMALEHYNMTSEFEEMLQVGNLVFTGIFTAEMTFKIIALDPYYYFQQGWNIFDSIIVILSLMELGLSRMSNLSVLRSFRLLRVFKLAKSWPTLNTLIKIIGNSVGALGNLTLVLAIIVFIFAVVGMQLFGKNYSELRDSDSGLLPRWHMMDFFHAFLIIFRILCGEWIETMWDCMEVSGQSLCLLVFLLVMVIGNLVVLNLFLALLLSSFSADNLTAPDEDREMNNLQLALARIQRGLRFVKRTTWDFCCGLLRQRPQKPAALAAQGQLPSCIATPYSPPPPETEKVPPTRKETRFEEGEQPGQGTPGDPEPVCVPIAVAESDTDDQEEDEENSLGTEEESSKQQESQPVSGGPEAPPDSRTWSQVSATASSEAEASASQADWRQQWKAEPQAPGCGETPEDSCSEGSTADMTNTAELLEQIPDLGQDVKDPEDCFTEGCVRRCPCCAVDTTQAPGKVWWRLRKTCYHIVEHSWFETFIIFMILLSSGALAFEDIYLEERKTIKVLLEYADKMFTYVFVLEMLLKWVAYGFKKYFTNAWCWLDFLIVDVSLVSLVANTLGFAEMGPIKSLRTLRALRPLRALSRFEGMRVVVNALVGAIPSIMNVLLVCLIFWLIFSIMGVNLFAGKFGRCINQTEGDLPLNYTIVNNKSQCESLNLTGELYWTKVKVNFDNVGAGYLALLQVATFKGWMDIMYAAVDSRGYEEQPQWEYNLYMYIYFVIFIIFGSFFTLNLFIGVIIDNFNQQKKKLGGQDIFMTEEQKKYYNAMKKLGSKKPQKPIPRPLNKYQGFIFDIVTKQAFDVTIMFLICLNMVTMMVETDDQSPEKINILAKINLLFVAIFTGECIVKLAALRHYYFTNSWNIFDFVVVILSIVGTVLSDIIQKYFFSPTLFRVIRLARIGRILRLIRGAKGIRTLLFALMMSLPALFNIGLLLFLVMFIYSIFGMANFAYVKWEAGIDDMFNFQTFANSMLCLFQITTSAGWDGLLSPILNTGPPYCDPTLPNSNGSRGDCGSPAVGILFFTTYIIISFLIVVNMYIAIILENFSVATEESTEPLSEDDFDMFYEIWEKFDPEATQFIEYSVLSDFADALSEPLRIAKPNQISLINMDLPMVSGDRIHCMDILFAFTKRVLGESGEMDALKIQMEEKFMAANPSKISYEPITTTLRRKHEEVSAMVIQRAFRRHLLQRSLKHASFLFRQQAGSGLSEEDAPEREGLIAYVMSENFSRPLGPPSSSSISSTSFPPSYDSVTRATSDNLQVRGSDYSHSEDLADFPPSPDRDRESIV

[18] = Selectivity ratio of IC50 for C-terminal 10His-tagged recombinant human MMP-14 (21 to 284 residues) expressed in Escherichia coli using McaKPLGL-Dpa-AR-NH2 as substrate to IC50 for ADAMTS7 (unknown origin)
[19] = Half life in Wistar rat at 0.3 mg/kg, iv measured for >24 hrs by HPLC-MS/MS analysis; type: ADME, organism-based; conditions: in vivo
[20] = Half life in C57bl6 mouse at 0.3 mg/kg, iv measured for >24 hrs by HPLC-MS/MS analysis; type: ADME, organism-based; conditions: in vivo
[21] = Tmax in C57bl6 mouse at 1 mg/kg, po measured for >24 hrs by HPLC-MS/MS analysis; type: ADME, organism-based; conditions: in vivo
[22] = Selectivity ratio of IC50 for ADAM17 (unknown origin) to IC50 for ADAMTS7 (unknown origin)
Cytochrome P450 3A4 [23] = target: T2, Cytochrome P450 3A4 (Homo sapiens, UniProt P08684); test: Induction of CYP3A4 in human hepatocytes upto 61 uM incubated for 48 hrs by qPCR analysis; type: ADME, cell-based, Hepatocyte
T2 sequence (P08684 whole entry): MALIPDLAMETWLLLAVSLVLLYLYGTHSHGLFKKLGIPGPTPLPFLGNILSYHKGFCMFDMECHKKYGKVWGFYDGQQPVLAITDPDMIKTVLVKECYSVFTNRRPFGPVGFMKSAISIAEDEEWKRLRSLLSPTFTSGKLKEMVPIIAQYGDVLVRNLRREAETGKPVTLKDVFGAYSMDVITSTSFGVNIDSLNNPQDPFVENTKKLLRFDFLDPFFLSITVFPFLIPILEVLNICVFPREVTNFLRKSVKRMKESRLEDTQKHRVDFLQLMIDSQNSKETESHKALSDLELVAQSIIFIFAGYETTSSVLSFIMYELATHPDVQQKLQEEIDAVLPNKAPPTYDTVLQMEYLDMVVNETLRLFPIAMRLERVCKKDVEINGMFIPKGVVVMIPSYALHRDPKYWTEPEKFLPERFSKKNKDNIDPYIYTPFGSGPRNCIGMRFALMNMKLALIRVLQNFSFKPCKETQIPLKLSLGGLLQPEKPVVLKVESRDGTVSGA

[24] = target: Voltage-dependent L-type calcium channel subunit alpha-1C (Homo sapiens, UniProt Q13936); test: Inhibition of hCaV1.2 upto 10 uM by voltage clamp method; type: toxicity
[25] = Volume of distribution at steady state in Wistar rat at 0.3 mg/kg, iv measured for >24 hrs by HPLC-MS/MS analysis; type: ADME, organism-based; conditions: in vivo
Cytochrome P450 3A4 [26] = target: T2, Cytochrome P450 3A4; test: Induction of CYP3A4 in human hepatocytes assessed as threshold concentration incubated for 48 hrs by qPCR analysis; type: ADME, cell-based, Hepatocyte
Cytochrome P450 1A2 = target: T3, Cytochrome P450 1A2 (Homo sapiens, UniProt P05177); test: Inhibition of CYP1A2 in human liver microsomes using phenacetin as substrate upto 20 uM by LC-MS/MS analysis; type: ADME, Microsome
T3 sequence (P05177 whole entry): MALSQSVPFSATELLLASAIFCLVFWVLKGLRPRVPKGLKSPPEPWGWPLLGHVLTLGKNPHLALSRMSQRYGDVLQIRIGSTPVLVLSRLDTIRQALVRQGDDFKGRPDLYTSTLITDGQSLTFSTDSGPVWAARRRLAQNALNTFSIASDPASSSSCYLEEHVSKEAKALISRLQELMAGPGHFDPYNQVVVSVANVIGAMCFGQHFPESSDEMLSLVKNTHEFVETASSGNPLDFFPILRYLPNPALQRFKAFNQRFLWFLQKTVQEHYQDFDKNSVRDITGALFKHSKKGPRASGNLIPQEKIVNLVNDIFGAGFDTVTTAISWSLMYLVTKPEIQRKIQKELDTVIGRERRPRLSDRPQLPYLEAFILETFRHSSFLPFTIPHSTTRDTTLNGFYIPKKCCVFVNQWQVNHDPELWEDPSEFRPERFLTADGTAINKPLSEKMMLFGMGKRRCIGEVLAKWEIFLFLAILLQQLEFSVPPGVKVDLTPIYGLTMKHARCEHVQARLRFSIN

[27] = Dose normalized AUC in Beagle dog at 1 mg/kg, po measured for >24 hrs by HPLC-MS/MS analysis; type: ADME, organism-based, Canis lupus familiaris; conditions: in vivo
[28] = Selectivity ratio of IC50 for MMP12 (unknown origin) to IC50 for ADAMTS7 (unknown origin)

Work on `Cn1nccc1[C@]1(CNC(=O)c2ccc(F)c(F)c2-c2ccc(C(F)(F)F)cc2)NC(=O)NC1=O` yielded a Ratio IC50 [1] of 5, a t1/2 [2] of 25 h and a Fu [3] of 15%. For the same molecule, the Ratio IC50 [4] was 17300, the F [5] was 77% and the Ratio IC50 [6] was 1650. The solubility [7] was 135 mg/L (≈ 274 µM), the CL [8] was 0.02 L/h/kg and the Stability [9] was “Stable”. The AUC/dose [10] was 1.15 kg·h/L, the t1/2 [11] was 22 h and the “inhibition (INH)” value (Cytochrome P450 2C8) was “Not Active”. For the same molecule, the Ratio IC50 [12] was 375, the IC50 [13] was 8 nM and the Ratio IC50 [14] was 5470. The “inhibition (INH)” value [15] was “Not Active”, the Fu [16] was 5% and the “inhibition (INH)” value [17] was “Not Active”. The Ratio IC50 [18] was > 16700, the t1/2 [19] was 3.6 h and the t1/2 [20] was 2.1 h. The Tmax [21] was 1 h, the Ratio IC50 [22] was 962 and the Activity (Cytochrome P450 3A4 [23]) was “Not Active”. For the same molecule, the “inhibition (INH)” value [24] was “Not Active”, the Vdss [25] was 1.2 L/kg and the Activity (Cytochrome P450 3A4 [26]) was 18 µM. The “inhibition (INH)” value (Cytochrome P450 1A2) was “Not Active”, the AUC/dose [27] was 68 kg·h/L and the Ratio IC50 [28] was 896.

Reference: ChEMBL document CHEMBL5528056, “BAY-9835: Discovery of the First Orally Bioavailable ADAMTS7 Inhibitor” (J Med Chem, 2024)
